According to patent US20030187007A1, “Inhibitors of protein kinase for the treatment of disease” (priority 2001, published 2003):
Where a name gives a salt, the structure may show the parent alone.

Biological target: CDK2 complexed with cyclin A (Homo sapiens, UniProt P24941)
Experiment: Cyclin dependent kinase activity assay, phosphorylation of synthetic peptide PKTPKKAKKLRRR
Format: biochemical
Conditions: 0.1 mM ATP, read-out: CDK 2 Activity*
Protocol: (§1) The assay of cyclin dependent kinase activity was determined by monitoring the phosphorylation of a synthetic peptide, PKTPKKAKKLRRR. The assay mixture contained 0.1 mM cold ATP, ^33P-γ-ATP (2000-4000 cpm/μL), 0.1 mM peptide, 1 mM DTT, and 10 mM MgCl2 in 100 mM HEPES buffer pH 7.4. The assay mixture, along with inhibitor and CDK enzyme (0.3-0.4 U/mL; either CDK5 complexed with p25, CDK2 complexed with complexed with cyclin A), was mixed together in a microtiter plate in a final volume of 40 μL, sealed and incubated for 2 hours at 30° C. Following incubation, a 15 μL aliquot was added to a Whatman P81 filtration plate containing 100 μL 0.5% phosphoric acid. This mixture was allowed to stand for 5 minutes prior to filtration on a vacuum manifold. The filter plate was washed with 5 successive additions of 300 μL 0.5% phosphoric acid. The filtration plate was air dried for 10 minutes before sealing the bottom. After addition of scintillation fluid to the sealed plate, phosphorylated peptide was quantified in a scintillation counter.

SMILES	IC50
NC(=S)N/N=C/c1cc(-c2cccc(C(=O)O)c2)ccc1O [Example 17, 5-(3-Carboxyphenyl)salicylaldehyde thiosemicarbazone]	500 to 2000 nM
NC(=S)N/N=C/c1cc(-c2cccs2)ccc1O [Example 33, 5-(2-Thienyl)salicylaldehyde thiosemicarbazone]	< 500 nM
NC(=S)N/N=C/c1cc(-c2ccncc2)ccc1O [Example 30, 5-(4-Pyridyl)salicylaldehyde thiosemicarbazone]	2000 to 5000 nM
COC(=O)c1cccc(-c2ccc(O)c(/C=N/NC(N)=S)c2)c1 [Example 12, 5-(3-Methoxycarbonylphenyl)salicylaldehyde thiosemicarbazone]	> 5000 nM
NC(=S)N/N=C/c1c(O)ccc2ccccc12 [Example 42, 2-[(2-Hydroxy-1-naphthyl)methylidene]hydrazine-1-carbothioamide]	< 500 nM
NC(=S)N/N=C/c1cc(-c2ccccc2)ccc1O [Example 4, 5-Phenylsalicylaldehyde thiosemicarbazone]	500 to 2000 nM
NC(=S)N/N=C/c1cc(-c2cncnc2)ccc1O [Example 32, 5-(5-Pyrimidyl)salicylaldehyde thiosemicarbazone]	2000 to 5000 nM
NC(=S)N/N=C/c1cc(-c2cccc(F)c2)ccc1O [Example 15, 5-(3-Fluorophenyl)salicylaldehyde thiosemicarbazone]	500 to 2000 nM
NC(=O)N/N=C/c1cc(Br)ccc1O [Example 3, 5-Bromosalicylaldehyde semicarbazone hydrochloride]	2000 to 5000 nM
NC(=O)N/N=C/c1cc(-c2cccc(C(=O)O)c2)ccc1O [Example 18, 5-(3-Carboxyphenyl)salicylaldehyde semicarbazone hydrochloride]	500 to 2000 nM

Results, then the compound that gave them:

IC50	SMILES
< 500 nM	Nc1cnc(-c2cc(-c3ccc(O)cc3)ccc2O)nc1N [Example 51, 3-(4,5-Diamino-pyrimidin-2-yl)-biphenyl-4,4′-diol]
> 5000 nM	NC(=S)N/N=C/c1cc(-c2ccc([N+](=O)[O-])cc2)ccc1O [Example 11, 5-(4-Nitrophenyl)salicylaldehyde thiosemicarbazone]
< 500 nM	Nc1nccc(-c2cc(-c3ccc(O)c(F)c3)ccc2O)n1 [Example 53, 3-(2-Amino-pyrimidin-4-yl)-3′-fluoro-biphenyl-4,4′-diol]
< 500 nM	COc1cc(-c2cc(-c3ccc(O)cc3)ccc2O)nc(N)n1 [Example 50, 3-(2-Amino-6-methoxy-pyrimidin-4-yl)-biphenyl-4,4′-diol]
< 500 nM	Nc1nc(Cl)cc(-c2cc(-c3ccc(O)cc3)ccc2O)n1 [Example 54, 3-(2-Amino-6-chloro-pyrimidin-4-yl)-biphenyl-4,4′-diol]
< 500 nM	Nc1cc(-c2cc(-c3ccnc(N)n3)ccc2O)nc(N)n1 [Example 74, 2-(2,4-Diamino-pyrimidin-6-yl)-4-(2-aminopyrimidin-4-yl)-phenol]
> 5000 nM	Nc1nccc(-c2cc(-c3c[nH]c(=O)[nH]c3=O)ccc2O)n1 [Example 70, 5-[3-(2-Amino-pyrimidin-4-yl)-4-hydroxy-phenyl]-1 H-pyrimidine-2.4-dione]
< 500 nM	NC(=S)N/N=C/c1cc(-c2ccc(O)cc2)ccc1O [Example 21, 5-(4-Hydroxyphenyl)salicylaldehyde thiosemicarbazone]
< 500 nM	Cc1cc(-c2cc(-c3ccnc(N)n3)ccc2O)nc(N)n1 [Example 72]
< 500 nM	Nc1nc(NCCO)cc(-c2cc(-c3ccc(O)cc3)ccc2O)n1 [Example 55, 3-[2-Amino-6-(2-hydroxy-ethylamino)-pyrimidin-4-yl]-biphenyl-4,4′-diol]
500 to 2000 nM	NC(=O)N/N=C/c1cc(-c2ccc(O)cc2)c(O)cc1O [Example 29, 4-Hydroxy-5-(4-hydroxyphenyl)salicylaldehyde semicarbazone hydrochloride]
< 500 nM	Nc1ccc(-c2cc(-c3ccc(O)cc3)ccc2O)nc1 [Example 48, 3-(5-Amino-pyridin-2-yl)-biphenyl-4,4′-diol]
< 500 nM	Nc1nc(-c2cc(-c3ccc(O)cc3)ccc2O)cc(N2CCCC2CO)n1 (stereo not drawn) [Example 79, 3-[2-Amino-6-(2R-hydroxymethyl-pyrrolidin-1-yl)-pyrimidin-4-yl]-biphenyl-4.4′-diol]

Biological target: CDK5 complexed with p25 (Homo sapiens, UniProt Q00535)
Sequence (Q00535 whole entry): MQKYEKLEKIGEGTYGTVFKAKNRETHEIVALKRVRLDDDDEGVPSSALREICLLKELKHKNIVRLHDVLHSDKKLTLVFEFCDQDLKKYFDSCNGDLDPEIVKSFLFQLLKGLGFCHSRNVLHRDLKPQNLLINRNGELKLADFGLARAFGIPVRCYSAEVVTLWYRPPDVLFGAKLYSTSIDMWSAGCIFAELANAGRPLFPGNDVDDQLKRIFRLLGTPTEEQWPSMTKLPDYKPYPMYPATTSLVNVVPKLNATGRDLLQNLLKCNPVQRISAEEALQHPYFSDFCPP
Sequence (Q15078 99-307 partner limits assumed): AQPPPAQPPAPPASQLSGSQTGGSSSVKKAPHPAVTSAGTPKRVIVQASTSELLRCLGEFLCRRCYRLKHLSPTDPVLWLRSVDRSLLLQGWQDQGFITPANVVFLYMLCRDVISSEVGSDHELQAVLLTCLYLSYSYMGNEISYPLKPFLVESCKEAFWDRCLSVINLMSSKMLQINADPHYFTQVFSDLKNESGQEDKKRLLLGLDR
Experiment: as above
Format: biochemical
Conditions: CDK5 complexed with p25, 0.1 mM ATP; read-out: CDK 5 Activity*
Protocol: as §1

SMILES	IC50
NC(=S)N/N=C/c1cc(-c2cccc(C(=O)O)c2)ccc1O [Example 17, 5-(3-Carboxyphenyl)salicylaldehyde thiosemicarbazone]	2000 to 5000 nM
NC(=S)N/N=C/c1cc(-c2cccs2)ccc1O [Example 33, 5-(2-Thienyl)salicylaldehyde thiosemicarbazone]	500 to 2000 nM
NC(=S)N/N=C/c1cc(-c2ccncc2)ccc1O [Example 30, 5-(4-Pyridyl)salicylaldehyde thiosemicarbazone]	< 500 nM
COC(=O)c1cccc(-c2ccc(O)c(/C=N/NC(N)=S)c2)c1 [Example 12, 5-(3-Methoxycarbonylphenyl)salicylaldehyde thiosemicarbazone]	500 to 2000 nM
NC(=S)N/N=C/c1c(O)ccc2ccccc12 [Example 42, 2-[(2-Hydroxy-1-naphthyl)methylidene]hydrazine-1-carbothioamide]	< 500 nM
NC(=S)N/N=C/c1cc(-c2ccccc2)ccc1O [Example 4, 5-Phenylsalicylaldehyde thiosemicarbazone]	< 500 nM
NC(=S)N/N=C/c1cc(-c2cncnc2)ccc1O [Example 32, 5-(5-Pyrimidyl)salicylaldehyde thiosemicarbazone]	2000 to 5000 nM
NC(=S)N/N=C/c1cc(-c2cccc(F)c2)ccc1O [Example 15, 5-(3-Fluorophenyl)salicylaldehyde thiosemicarbazone]	500 to 2000 nM
NC(=O)N/N=C/c1cc(Br)ccc1O [Example 3, 5-Bromosalicylaldehyde semicarbazone hydrochloride]	500 to 2000 nM
NC(=O)N/N=C/c1cc(-c2cccc(C(=O)O)c2)ccc1O [Example 18, 5-(3-Carboxyphenyl)salicylaldehyde semicarbazone hydrochloride]	< 500 nM

The next lines start with the values.

IC50	SMILES
< 500 nM	Nc1cnc(-c2cc(-c3ccc(O)cc3)ccc2O)nc1N [Example 51, 3-(4,5-Diamino-pyrimidin-2-yl)-biphenyl-4,4′-diol]
2000 to 5000 nM	NC(=S)N/N=C/c1cc(-c2ccc([N+](=O)[O-])cc2)ccc1O [Example 11, 5-(4-Nitrophenyl)salicylaldehyde thiosemicarbazone]
< 500 nM	Nc1nccc(-c2cc(-c3ccc(O)c(F)c3)ccc2O)n1 [Example 53, 3-(2-Amino-pyrimidin-4-yl)-3′-fluoro-biphenyl-4,4′-diol]
< 500 nM	COc1cc(-c2cc(-c3ccc(O)cc3)ccc2O)nc(N)n1 [Example 50, 3-(2-Amino-6-methoxy-pyrimidin-4-yl)-biphenyl-4,4′-diol]
< 500 nM	Nc1nc(Cl)cc(-c2cc(-c3ccc(O)cc3)ccc2O)n1 [Example 54, 3-(2-Amino-6-chloro-pyrimidin-4-yl)-biphenyl-4,4′-diol]
2000 to 5000 nM	Nc1nccc(-c2cc(-c3c[nH]c(=O)[nH]c3=O)ccc2O)n1 [Example 70, 5-[3-(2-Amino-pyrimidin-4-yl)-4-hydroxy-phenyl]-1 H-pyrimidine-2.4-dione]
< 500 nM	NC(=S)N/N=C/c1cc(-c2ccc(O)cc2)ccc1O [Example 21, 5-(4-Hydroxyphenyl)salicylaldehyde thiosemicarbazone]
< 500 nM	Nc1nc(NCCO)cc(-c2cc(-c3ccc(O)cc3)ccc2O)n1 [Example 55, 3-[2-Amino-6-(2-hydroxy-ethylamino)-pyrimidin-4-yl]-biphenyl-4,4′-diol]
> 5000 nM	NC(=O)N/N=C/c1cc(-c2ccc(O)cc2)c(O)cc1O [Example 29, 4-Hydroxy-5-(4-hydroxyphenyl)salicylaldehyde semicarbazone hydrochloride]
< 500 nM	Nc1ccc(-c2cc(-c3ccc(O)cc3)ccc2O)nc1 [Example 48, 3-(5-Amino-pyridin-2-yl)-biphenyl-4,4′-diol]
